According to PMC11729425 (ACS Pharmacology & Translational Science, 2024):

System: human primary IBM cells
Test: Aggresome detection (proteostat) in primary myoblasts from IBM patients
Assay type: cell-based
Conditions: 4 μM for 24 h
Experimental: Figure 4 1-deoxy-SL species accumulate in muscle and brain tissues during aging and contribute to cellular protein aggregation. (A,B) Heat map representing the abundance of sphingolipids in (A) gastrocnemius muscle and (B) brain with and without treatment with ALT-007 in mice (ALT-007 at 1 mg/kg; DMSO at equivalent volume for 20 weeks). N = 8 per group. Data are shown as log2 fold change. Adjusted P values are indicated as follows: *adjusted P < 0.05; **adjusted P < 0.01; ***adjusted P < 0.001. (C,D) Representative images and quantification of protein aggregates upon 1-deoxy-SA (C) and P053 treatment (D) in human primary IBM cells; both were administered at 4 μM for 24 h. N = 8 per group. (E) Analysis of 1-Deoxy-Spa and 1-DeoxyCer 24:1 levels in myoblasts from healthy and IBM patients. N = 3 per group. (C–E) Quantitative data are expressed as median with IQR and compared using the Mann–Whitney U test. All tests were 2 sided. *P < 0.05, **P < 0.01, ***P < 0.001.
Primary myoblasts from IBM patients and healthy aged matched donors were provided by Hospices Civils de Lyon. Cells were grown in DMEM/F-10 supplemented with 12% FBS (Gibco) and penicillin–streptomycin (1×, Gibco). Cells were cultured on sterilized coverslips in six-well plates (Greiner BioOne, CELLSTAR, 657160). […]

## CCCCCCCCCCCCCCC[C@@H](O)[C@H](C)N [1-deoxy-SA, 1-deoxy-sphinganine]
  cellular protein aggregates (proteostat signal): significantly exacerbated the accumulation of cellular protein aggregates
